Experimental data from patent publication US20020143013A1, “Thioxazinoquinolones as antiviral agents” (priority 2001, published 2002).

Target: T1, HCMV polymerase (Human cytomegalovirus, UniProt P08546)
T1 construct: made in house; host or cells: recombinant baculovirus-infected SF-9 cells
Assay: HCMV polymerase assay (modified scintillation proximity assay)
Type: biochemical
Conditions: modified SPA assay; compounds diluted in 100% DMSO; 4.5 mM DTT in polymerase buffer
Protocol: The HCMV polymerase assay is performed using a scintillation proximity assay (SPA) as described in several references, such as N. D. Cook, et al., Pharmaceutical Manufacturing International, pages 49-53 (1992); K. Takeuchi, Laboratory Practice, September issue (1992); U.S. Pat. No. 4,568,649 (1986); which are incorporated by reference herein. Reactions are performed in 96-well plates. The assay is conducted in 100 μl volume with 5.4 mM HEPES (pH 7.5), 11.7 mM KCl, 4.5 mM MgCl2, 0.36 mg/ml BSA, and 90 nM ^3H-dTTP. Assays are run with and without CHAPS, (3-[(3-Cholamidopropyl)-dimethylammonio]-1-propane-sulfonate) at a final concentration of 2 mM. HCMV polymerase is diluted in enzyme dilution buffer containing 50% glycerol, 250 mM NaCl, 10 mM HEPES (pH 7.5), 100 μg/ml BSA, and 0.01% sodium azide. The HCMV polymerase, which is expressed in recombinant baculovirus-infected SF-9 cells and purified according to literature procedures, is added at 10% (or 10 μl) of the final reaction volume, i.e., 100 μl. Compounds are diluted in 50% DMSO and 10 μl are added to each well. Control wells contain an equivalent concentration of DMSO. […] Plates are incubated 10 min. at 37 C., then equilibrated to room temperature, and counted on a Packard Topcount. Linear regressions are performed and IC50's are calculated using computer software. […]

T1 sequence (P08546 whole entry): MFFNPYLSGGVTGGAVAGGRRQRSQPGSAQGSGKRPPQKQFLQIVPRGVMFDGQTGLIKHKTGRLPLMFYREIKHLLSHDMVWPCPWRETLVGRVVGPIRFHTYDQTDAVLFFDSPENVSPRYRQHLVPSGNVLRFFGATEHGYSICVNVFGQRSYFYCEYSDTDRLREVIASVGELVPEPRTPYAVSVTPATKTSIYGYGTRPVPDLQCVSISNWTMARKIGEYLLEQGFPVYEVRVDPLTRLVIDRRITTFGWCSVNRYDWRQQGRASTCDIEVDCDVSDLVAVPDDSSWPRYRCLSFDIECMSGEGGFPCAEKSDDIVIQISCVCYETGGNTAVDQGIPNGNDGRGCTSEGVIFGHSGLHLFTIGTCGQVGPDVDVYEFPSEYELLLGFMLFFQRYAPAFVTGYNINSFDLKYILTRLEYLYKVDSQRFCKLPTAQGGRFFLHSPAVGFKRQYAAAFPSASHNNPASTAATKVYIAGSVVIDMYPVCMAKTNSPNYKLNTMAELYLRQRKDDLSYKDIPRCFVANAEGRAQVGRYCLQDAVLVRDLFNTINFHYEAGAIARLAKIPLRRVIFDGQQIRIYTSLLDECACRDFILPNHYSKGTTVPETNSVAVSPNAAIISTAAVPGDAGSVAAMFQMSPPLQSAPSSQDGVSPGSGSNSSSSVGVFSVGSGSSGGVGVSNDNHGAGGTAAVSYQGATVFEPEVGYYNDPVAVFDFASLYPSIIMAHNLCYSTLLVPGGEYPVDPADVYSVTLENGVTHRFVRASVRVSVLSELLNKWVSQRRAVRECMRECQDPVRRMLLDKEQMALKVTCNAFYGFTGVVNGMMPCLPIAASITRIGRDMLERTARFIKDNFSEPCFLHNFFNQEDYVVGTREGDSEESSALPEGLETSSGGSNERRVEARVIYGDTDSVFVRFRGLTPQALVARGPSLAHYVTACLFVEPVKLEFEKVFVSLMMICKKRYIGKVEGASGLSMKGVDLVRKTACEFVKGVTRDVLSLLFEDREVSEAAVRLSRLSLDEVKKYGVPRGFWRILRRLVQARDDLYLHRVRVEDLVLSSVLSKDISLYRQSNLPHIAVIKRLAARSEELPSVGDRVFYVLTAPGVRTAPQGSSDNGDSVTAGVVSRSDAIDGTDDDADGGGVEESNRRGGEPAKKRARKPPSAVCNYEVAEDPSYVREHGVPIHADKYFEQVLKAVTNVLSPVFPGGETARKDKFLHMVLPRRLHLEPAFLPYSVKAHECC

O=C(NCc1ccc(Cl)cc1)c1cn2c3c(cc(CN4CCOCC4)cc3c1=S)OCC2 [Example 1, N-(4-chlorobenzyl)-9-(4-morpholinylmethyl)-7-thioxo-2,3-dihydro-7H-[1,4]oxazino[2,3,4-ij]quinoline-6-carboxamide]
IC50: 0.06 µM
